The source of these data is patent publication US12290601B2, “Pharmaceutical composition comprising axitinib” (Synthon B.V., priority 2019, dated 2025).

The structures appear in SMILES notation. Read-outs that look alike come from different tables or passages of the source.

For data set [1] the following is noted: cited from earlier work.
The conditions of data set [2]: among polymorphic forms; cited from earlier work.
The nature of the next data set: Aqueous solubility. The note with it: versus form XLI. In kind it is physicochemical.
The nature of data set [3]: Photo-stability of crystalline forms. It counts as physicochemical. The note with it: versus form XLI.

`CNC(=O)c1ccccc1Sc1ccc2c(/C=C/c3ccccn3)n[nH]c2c1` [Axitinib, N-methyl-2-({3-[(E)-2-pyridin-2-ylethenyl]-1H-indazol-6-yl}sulfanyl)benzamide]: the solubility entry in data set [1] is “low solubility”; in data set [1] (gastric, pH 1.7), “highly soluble”.
`CNC(=O)c1ccccc1Sc1ccc2c(/C=C/c3ccccn3)n[nH]c2c1` [Form XLI, N-methyl-2-({3-[(E)-2-pyridin-2-ylethenyl]-1H-indazol-6-yl}sulfanyl)benzamide]: the thermodynamic stability result in data set [2] is reported as “most thermodynamically stable”.
Take `CNC(=O)c1ccccc1Sc1ccc2c(/C=C/c3ccccn3)n[nH]c2c1` [axitinib form IV, N-methyl-2-({3-[(E)-2-pyridin-2-ylethenyl]-1H-indazol-6-yl}sulfanyl)benzamide]: the “aqueous solubility, fold higher compared to crystalline axitinib form XLI” value in the data set “Aqueous solubility” was 2-3 fold. Moreover, in data set [3], the “photo-stability compared to crystalline axitinib form XLI” value is on record as “less photo-stable”.
